Source: patent US20040132156A1, “Modified hepsin molecules having a substitute activation sequence and uses thereof” (Schering Aktiengesellschaft, priority 2002, published 2004)
Read-outs that look alike come from different tables or passages of the source.

Tested on: hepsin mRNA in LNCaP cells
Conditions: DHT 10 nM, 24 or 72 hours, Northern blot, compared to GAPDH
Method: The prostate cancer cell lines, LNCaP, were obtained from ATCC. The LNCaP cells were treated with dihydrotestosterone (Sigma A 8380) in order to study the response of hepsin mRNA expression to androgens. The confluent cells were cultured in growth medium containing charcoal-stripped FBS for 24 hours. DHT was added to each flask at 10 nM. For control cells, ethanol was added as a vehicle control. The cells were incubated for 24 or 72 hours.
Total RNA was isolated from the cell lines using the RNeasy Maxi Kit (Qiagen), as described in section E above. The Northern gel and blot methods were performed as described in section A above.
The fold-increase of the amount of hepsin mRNA compared to GAPDH was performed according to section C above.

C[C@]12CCC(=O)C[C@@H]1CC[C@@H]1[C@@H]2CC[C@]2(C)[C@@H](O)CC[C@@H]12 [DHT, dihydrotestosterone]
hepsin mRNA transcript levels: increased | hepsin mRNA transcript levels (listed as dihydrotestosterone): Up-regulation
